Values after ≈ are worked out from the molar mass of the structure shown.
Tests used:
ART24 [1] = test: Antibiotic susceptibility of ART24 lots and cell banks, MIC following EFSA testing recommendations (Table 3); format: cell-based, Bacillus amyloliquefaciens; conditions: for MIC: Bacillus amyloliquefaciens
Protocol: The minimum inhibitory concentration (MIC) of the listed antimicrobials is expressed as μg/mL. Additional studies following EFSA testing recommendations were performed on lyophilized ART24 lots CO-33-10A2 and CO-33-12A2 and Research and Master Cell Banks CO-33-ART24 BHI and CO-33-ART24 SYD, and those results are shown in Table 3.

ART24 [2] = test: Antibiotic susceptibility of ART24, MIC, VetMIC panels (Table 2); format: cell-based, Bacillus amyloliquefaciens; conditions: for MIC: Bacillus amyloliquefaciens, read-out: ART24 MIC
Protocol: The minimum inhibitory concentration (MIC) of the listed antimicrobials is expressed as μg/mL. […] The wells of the prefabricated 96-well plates were filled with 100 μL of the final suspension. The plates were sealed with an […], Sigma Aldrich) sealing film (to facilitate growth of the aerobic Bacillus. The plates were then incubated for 24 hr at 37° C. The results are recorded after 24 hours as the lowest concentration of the antibiotic to inhibit visible growth. The prefabricated panels […], Uppsala, Sweden) comprising the antibiotics ampicillin, vancomycin, gentamicin, kanamycin, streptomycin, erythromycin, clindamycin, tetracycline, chloramphenicol, neomycin, penicillin, quinupristin-dalfopristin, linezolid, trimethoprim, ciprofloxacin and rifampicin were used.

[3] = ART24 source: cell bank CO-33 ART 24 BHI
[4] = ART24 source: cell bank CO-33 ART 024 SYD
[5] = ART24 source: lyophilized lot CO-33-10A2
[6] = ART24 source: lyophilized lot CO-33-12A2
[7] = ART24 source: cell bank CO-33 ART 24 BHI, read-out: MIC, CO-33 ART 24 BHI
[8] = ART24 source: cell bank CO-33 ART 024 SYD, read-out: MIC, CO-33 ART 024 SYD
[9] = ART24 source: lyophilized lot CO-33-10A2, read-out: MIC, CO-33-10A2
[10] = ART24 source: lyophilized lot CO-33-12A2, read-out: MIC, CO-33-12A2
[11] = 24 hr at 37° C., average results from N = 6

| Compound | MIC interpretation, CO-33 ART 24 BHI (ART24 [1]; [3]) | MIC interpretation, CO-33 ART 024 SYD (ART24 [1]; [4]) | MIC interpretation, CO-33-10A2 (ART24 [1]; [5]) | MIC interpretation, CO-33-12A2 (ART24 [1]; [6]) | MIC (ART24 [1]; [7]) [µg/mL] | MIC (ART24 [1]; [8]) [µg/mL] | MIC (ART24 [1]; [9]) [µg/mL] | MIC (ART24 [1]; [10]) [µg/mL] | MIC (ART24 [2]; [11]) [µg/mL] | other results |
| --- | --- | --- | --- | --- | --- | --- | --- | --- | --- | --- |
| CN[C@H](CC(C)C)C(=O)N[C@H]1C(=O)N[C@@H](CC(N)=O)C(=O)N[C@H]2C(=O)N[C@H]3C(=O)N[C@H](C(=O)N[C@H](C(=O)O)c4cc(O)cc(O)c4-c4cc3ccc4O)[C@H](O)c3ccc(c(Cl)c3)Oc3cc2cc(c3O[C@@H]2O[C@H](CO)[C@@H](O)[C@H](O)[C@H]2O[C@H]2C[C@](C)(N)[C@H](O)[C@H](C)O2)Oc2ccc(cc2Cl)[C@H]1O [Vancomycin] | S | S | S | S |  |  |  |  |  | MIC (ART24 [1]; read-out: MIC, CO-33-10A2): ≤ 0.25 µg/mL; MIC (ART24 [1]; read-out: MIC, CO-33-12A2): ≤ 0.25 µg/mL; MIC (ART24 [1]; read-out: MIC, CO-33 ART 24 BHI): 0.5 µg/mL (≈ 0.345 µM); MIC (ART24 [1]; read-out: MIC, CO-33 ART 024 SYD): ≤ 0.25 µg/mL; MIC (ART24 [2]; 24 h): 0.5 to 1 µg/mL (≈ 0.345 to 0.69 µM) |
| [H]/N=C(/N)N[C@H]1[C@H](O)[C@@H](O)[C@H](O[C@@H]2O[C@@H](C)[C@](O)(C=O)[C@H]2O[C@@H]2O[C@@H](CO)[C@H](O)[C@@H](O)[C@@H]2NC)[C@@H](N/C(N)=N\[H])[C@@H]1O [Streptomycin] | S | S | S | S | 1 (≈ 1.72 µM) | 2 (≈ 3.44 µM) | 1 (≈ 1.72 µM) | 1 (≈ 1.72 µM) | 4 (≈ 6.88 µM) |  |
| CC1(C)S[C@@H]2[C@H](NC(=O)[C@H](N)c3ccccc3)C(=O)N2[C@H]1C(=O)O [Ampicillin] | S | S | S | S | ≤ 0.03 | ≤ 0.03 | ≤ 0.03 | ≤ 0.03 | 0.25 (≈ 0.715 µM) |  |
| CN(C)[C@@H]1C(O)=C(C(N)=O)C(=O)[C@@]2(O)C(O)=C3C(=O)c4c(O)cccc4[C@@](C)(O)[C@H]3C[C@@H]12 [Tetracycline] | S | S | S | S | 2 (≈ 4.5 µM) | 2 (≈ 4.5 µM) | 2 (≈ 4.5 µM) | 2 (≈ 4.5 µM) | 4 (≈ 9 µM) |  |
| Quinupristin-dalfopristin |  |  |  |  |  |  |  |  |  | MIC, CO-33 ART 24 BHI (ART24 [1]; [3]): 2 µg/mL; MIC, CO-33 ART 024 SYD (ART24 [1]; [4]): 2 µg/mL; MIC, CO-33-10A2 (ART24 [1]; [5]): 1 µg/mL; MIC, CO-33-12A2 (ART24 [1]; [6]): 2 µg/mL; ART24 MIC (ART24 [2]; [11]): 4 µg/mL |
| CO[C@H]1/C=C/O[C@@]2(C)Oc3c(C)c(O)c4c(O)c(c(/C=N/N5CCN(C)CC5)c(O)c4c3C2=O)NC(=O)/C(C)=C\C=C\[C@H](C)[C@H](O)[C@@H](C)[C@@H](O)[C@@H](C)[C@H](OC(C)=O)[C@@H]1C [Rifampicin] | S | S | S | S | 0.25 (≈ 0.304 µM) | 0.25 (≈ 0.304 µM) | 0.25 (≈ 0.304 µM) | 0.25 (≈ 0.304 µM) | 0.5 (≈ 0.608 µM) |  |
| Penicillin | S | S | S | S |  |  |  |  |  | MIC, CO-33 ART 24 BHI (ART24 [1]; [3]): ≤ 0.03 µg/mL; MIC, CO-33 ART 024 SYD (ART24 [1]; [4]): 0.06 µg/mL; MIC, CO-33-10A2 (ART24 [1]; [5]): ≤ 0.03 µg/mL; MIC, CO-33-12A2 (ART24 [1]; [6]): ≤ 0.03 µg/mL; ART24 MIC (ART24 [2]; [11]): 0.12 to 0.5 µg/mL |
| Cc1ncc([N+](=O)[O-])n1CCO [Metronidazole] |  |  |  |  |  |  |  |  |  | MIC (ART24 [1]; aerobic, ART24 source CO-33-10A2, read-out: MIC, CO-33-10A2 (aerobic)): > 64 µg/mL; MIC (ART24 [1]; aerobic, ART24 source CO-33-12A2, read-out: MIC, CO-33-12A2 (aerobic)): > 64 µg/mL; MIC (ART24 [1]; aerobic, ART24 source CO-33 ART 24 BHI, read-out: MIC, CO-33 ART 24 BHI (aerobic)): > 64 µg/mL; MIC (ART24 [1]; aerobic, ART24 source CO-33 ART 024 SYD, read-out: MIC, CO-33 ART 024 SYD (aerobic)): > 64 µg/mL; MIC (ART24 [1]; anaerobic, ART24 source CO-33-10A2, read-out: MIC, CO-33-10A2 (anaerobic)): 64 µg/mL (≈ 374 µM); MIC (ART24 [1]; anaerobic, ART24 source CO-33-12A2, read-out: MIC, CO-33-12A2 (anaerobic)): 64 µg/mL (≈ 374 µM); MIC (ART24 [1]; anaerobic, ART24 source CO-33 ART 24 BHI, read-out: MIC, CO-33 ART 24 BHI (anaerobic)): 64 µg/mL (≈ 374 µM); MIC (ART24 [1]; anaerobic, ART24 source CO-33 ART 024 SYD, read-out: MIC, CO-33 ART 024 SYD (anaerobic)): 64 µg/mL (≈ 374 µM) |
| CCC[C@@H]1C[C@@H](C(=O)N[C@@H]([C@H]2O[C@H](SC)[C@H](O)[C@@H](O)[C@H]2O)[C@H](C)Cl)N(C)C1 [Clindamycin] | S | S | S | S | 0.25 (≈ 0.588 µM) | 0.25 (≈ 0.588 µM) | 0.12 (≈ 0.282 µM) | 0.25 (≈ 0.588 µM) | 0.5 to 1 (≈ 1.18 to 2.35 µM) |  |

From patent publication US20250121013A1, “USE OF BACILLUS AMYLOLIQUEFACIENS FOR PREVENTING AND TREATING PARKINSON'S DISEASE” (Artugen Therapeutics Ltd., priority 2021, published 2025)
